# According to ChEMBL document CHEMBL1949652, “First enantioselective syntheses of the dopamine D1 and D2 receptor modulators, (+)- and (-)-govadine” (Bioorg Med Chem Lett, 2012):
# Tests used:
# D(1A) dopamine receptor = D(1A) dopamine receptor (Homo sapiens, UniProt P21728); assay: Antagonist activity at dopamine D1 receptor; type: functional
# D(2) dopamine receptor = D(2) dopamine receptor (Homo sapiens, UniProt P14416); assay: Antagonist activity at dopamine D2 receptor; type: functional
# D(2) dopamine receptor, sequence (P14416 whole entry): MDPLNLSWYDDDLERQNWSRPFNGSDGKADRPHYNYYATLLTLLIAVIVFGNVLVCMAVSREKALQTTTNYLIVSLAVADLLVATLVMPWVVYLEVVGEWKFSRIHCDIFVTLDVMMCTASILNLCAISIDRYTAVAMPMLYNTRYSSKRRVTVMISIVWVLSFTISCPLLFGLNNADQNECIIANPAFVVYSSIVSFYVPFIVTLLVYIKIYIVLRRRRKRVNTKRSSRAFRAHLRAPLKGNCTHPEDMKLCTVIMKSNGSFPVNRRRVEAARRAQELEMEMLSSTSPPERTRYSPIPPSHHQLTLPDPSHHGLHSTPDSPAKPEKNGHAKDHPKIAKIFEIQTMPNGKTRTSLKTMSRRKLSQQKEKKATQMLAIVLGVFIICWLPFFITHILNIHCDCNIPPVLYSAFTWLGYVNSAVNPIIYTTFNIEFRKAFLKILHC
# D(1A) dopamine receptor, sequence (P21728 whole entry): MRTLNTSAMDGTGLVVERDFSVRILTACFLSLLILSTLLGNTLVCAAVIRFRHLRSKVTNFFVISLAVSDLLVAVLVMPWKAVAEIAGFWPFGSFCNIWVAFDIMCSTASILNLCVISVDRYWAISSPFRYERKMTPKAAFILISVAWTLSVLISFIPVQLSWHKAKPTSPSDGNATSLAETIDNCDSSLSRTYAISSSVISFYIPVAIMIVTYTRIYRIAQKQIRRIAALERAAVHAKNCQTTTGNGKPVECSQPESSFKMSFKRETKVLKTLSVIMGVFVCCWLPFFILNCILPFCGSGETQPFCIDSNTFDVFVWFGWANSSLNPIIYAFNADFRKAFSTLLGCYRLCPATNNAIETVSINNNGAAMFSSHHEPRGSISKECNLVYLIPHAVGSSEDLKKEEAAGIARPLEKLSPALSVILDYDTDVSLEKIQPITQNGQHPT
EC50 (D(1A) dopamine receptor),EC50 (D(2) dopamine receptor),SMILES
0.0056 µM,56 µM,COc1cc2c(cc1O)CN1CCc3cc(OC)c(O)cc3[C@@H]1C2
> 100 µM,14 µM,COc1cc2c(cc1O)CN1CCc3cc(OC)c(O)cc3[C@H]1C2
